The values that follow come from ChEMBL document CHEMBL1141197, “Interaction of papain-like cysteine proteases with dipeptide-derived nitriles” (J Med Chem, 2005).

Where a SMILES comes first, the peptide text is derived from it. The star is where a group is joined. Boc = CC(C)(C)OC(=O)*

In experiment [1] the target is T1, Papain (Carica papaya, UniProt P00784).
T1 sequence (P00784 whole entry): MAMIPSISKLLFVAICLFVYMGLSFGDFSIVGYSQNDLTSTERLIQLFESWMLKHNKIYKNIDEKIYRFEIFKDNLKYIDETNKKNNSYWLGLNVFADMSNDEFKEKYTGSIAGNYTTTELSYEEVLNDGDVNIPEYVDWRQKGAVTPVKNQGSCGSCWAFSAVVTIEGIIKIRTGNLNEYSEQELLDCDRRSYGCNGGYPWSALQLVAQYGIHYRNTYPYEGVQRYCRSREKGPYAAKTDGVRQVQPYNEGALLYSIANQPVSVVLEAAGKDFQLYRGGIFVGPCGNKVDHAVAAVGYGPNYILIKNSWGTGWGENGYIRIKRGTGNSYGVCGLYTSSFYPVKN
The experiment is described as follows: Inhibitory activity against papain using Z-Phe-Arg-NHNp substrate.

For experiment [2], the target named is Procathepsin L (Bos taurus, UniProt P25975). Briefly: Inhibitory activity against bovine cathepsin L using Z-Phe-Arg-NHMec substrate.
Sequence of Procathepsin L (P25975 whole entry): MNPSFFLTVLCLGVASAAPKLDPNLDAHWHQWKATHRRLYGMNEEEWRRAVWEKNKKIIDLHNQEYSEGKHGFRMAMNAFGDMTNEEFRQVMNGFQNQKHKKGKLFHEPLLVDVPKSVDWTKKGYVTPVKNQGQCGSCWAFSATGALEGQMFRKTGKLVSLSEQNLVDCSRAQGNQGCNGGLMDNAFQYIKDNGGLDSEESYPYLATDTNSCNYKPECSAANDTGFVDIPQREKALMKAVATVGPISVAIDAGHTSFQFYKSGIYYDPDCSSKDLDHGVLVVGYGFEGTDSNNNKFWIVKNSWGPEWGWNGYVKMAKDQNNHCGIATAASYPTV
Experiment [3] has as its target Cathepsin S (Homo sapiens, UniProt P25774). Briefly: Inhibitory activity against human cathepsin S using Z-Val-Val-Arg-NHMec substrate.
For experiment [4], the target named is T2, Cathepsin K (Homo sapiens, UniProt P43235).
T2 sequence (P43235 whole entry): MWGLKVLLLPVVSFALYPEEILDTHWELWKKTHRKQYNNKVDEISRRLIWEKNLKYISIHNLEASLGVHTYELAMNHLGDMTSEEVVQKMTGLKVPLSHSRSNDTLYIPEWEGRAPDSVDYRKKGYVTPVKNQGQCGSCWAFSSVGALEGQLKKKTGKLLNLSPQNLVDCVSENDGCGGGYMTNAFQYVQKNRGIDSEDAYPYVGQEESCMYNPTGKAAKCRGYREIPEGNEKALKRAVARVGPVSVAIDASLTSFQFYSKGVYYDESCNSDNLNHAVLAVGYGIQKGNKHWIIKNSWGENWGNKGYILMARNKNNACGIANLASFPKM
The experiment is described as follows: Inhibitory activity against human cathepsin K using Z-Leu-Arg-NHMec substrate.

Sequence of Cathepsin S (P25774 whole entry): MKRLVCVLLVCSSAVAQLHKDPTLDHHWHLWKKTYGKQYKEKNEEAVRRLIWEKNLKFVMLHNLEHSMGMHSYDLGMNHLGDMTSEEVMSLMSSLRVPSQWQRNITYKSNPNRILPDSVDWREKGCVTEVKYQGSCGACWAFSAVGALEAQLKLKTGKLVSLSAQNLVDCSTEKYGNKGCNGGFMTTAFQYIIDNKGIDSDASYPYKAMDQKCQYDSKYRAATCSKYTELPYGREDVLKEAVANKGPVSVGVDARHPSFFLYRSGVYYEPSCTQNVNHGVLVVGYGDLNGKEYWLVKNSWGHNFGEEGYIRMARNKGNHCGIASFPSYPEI

With `CC(C)(C)OC(=O)N[C@@H](Cc1cccc(-c2ccccc2)c1)C(=O)NCC#N`, the Ki in experiment [1] came out at 1.2 µM; in experiment [2], 0.43 µM; in experiment [3] it was 0.27 µM; in experiment [4], 26 µM.
On to `CC(C)(C)OC(=O)N[C@@H](CCc1ccccc1)C(=O)NCC#N`, for which the Ki in experiment [1] amounted to 12 µM; in experiment [2], 9.4 µM; in experiment [3], 1.9 µM; in experiment [4], 8.5 µM.
For `CC(C)(C)OC(=O)N[C@@H](Cc1cccc2ccccc12)C(=O)NCC#N`, in that order: 28 µM, 1.7 µM, 1.3 µM and 66 µM.
The matching figures for `CSCC[C@H](NC(=O)OC(C)(C)C)C(=O)NCC#N`: 0.65 µM, 19 µM, 0.66 µM and 0.73 µM.
The matching figures for `CC(C)(C)OC(=O)N[C@@H](Cc1ccco1)C(=O)NCC#N`: 1.2 µM, 14 µM, 2.8 µM and 4.1 µM.
As to `CC(C)[C@H](NC(=O)OC(C)(C)C)C(=O)NCC#N`, the Ki in experiment [1] worked out at 2 µM; in experiment [2], 2.8 µM; in experiment [3] it was 6.2 µM; in experiment [4] it was 6.5 µM.
The matching figures for `CC(C)(C)OC(=O)N[C@@H](Cc1cccs1)C(=O)NCC#N`: 0.19 µM, 1.6 µM, 0.27 µM and 1.2 µM.
As for `CC(C)(C)OC(=O)N[C@@H](Cc1cccc(Br)c1)C(=O)NCC#N`, the Ki in experiment [1] is 0.33 µM; in experiment [2] it was 0.27 µM; in experiment [3], 0.34 µM; in experiment [4] it was 6.5 µM.
The matching figures for `CC(C)(C)OC(=O)N[C@@H](CC1CC1)C(=O)NCC#N`: 13 µM, 47 µM, 0.65 µM and 3.3 µM.
As for `CC(C)(C)OC(=O)N[C@H](Cc1ccccc1)C(=O)NCC#N`, the Ki was 41 µM in experiment [1], 46 µM in experiment [3] and over 100 µM in experiment [4].
In the case of `CC(C)C[C@H](NC(=O)OCc1ccccc1)C(=O)NCC#N`, the Ki in experiment [1] was 3.1 µM; in experiment [2], 0.75 µM; in experiment [3] it was 0.13 µM; in experiment [4], 0.035 µM.
The matching figures for `CC(=O)N[C@@H](Cc1ccccc1)C(=O)NCC#N`: 0.38 µM, 5.8 µM, 1.4 µM and 7.5 µM.
The matching figures for `CN(CC#N)C(=O)[C@H](Cc1ccccc1)NC(=O)OC(C)(C)C`: over 100 µM, over 100 µM, over 100 µM and over 100 µM.
The matching figures for `N#CCNC(=O)[C@H](Cc1ccccc1)NC(=O)c1ccc(-c2ccccc2)cc1`: 0.016 µM, 0.55 µM, 0.24 µM and 0.3 µM.
Take `CC(C)(C)OC(=O)N[C@@H](Cc1ccccc1)C(=O)NCC=O` (Boc-Phe-Gly-aldehyde): the Ki was found to be 0.015 µM in experiment [1], 0.022 µM in experiment [2], 0.025 µM in experiment [3] and 0.074 µM in experiment [4].
For `CC(C)(C)OC(=O)N[C@@H](Cc1ccc(F)cc1)C(=O)NCC#N`, in that order: 0.27 µM, 0.64 µM, 0.59 µM and 13 µM.
The matching figures for `CCCC[C@H](NC(=O)OC(C)(C)C)C(=O)NCC#N`: 1.57 µM, 19 µM, 0.55 µM and 1.27 µM.
For `CC(C)(C)OC(=O)N[C@@H](Cc1ccc(-c2ccccc2)cc1)C(=O)NCC#N`, in that order: 0.016 µM, 0.34 µM, 0.44 µM and 16 µM.
For `CC(C)(C)OC(=O)N[C@@H](CC1CCCCC1)C(=O)NCC#N`, the Ki in experiment [1] was 2.2 µM; in experiment [2], 1.1 µM; in experiment [3] it was 0.044 µM; in experiment [4], 5.3 µM.
The matching figures for `CC(C)(C)OC(=O)N1CCC[C@H]1C(=O)NCC#N`: 537 µM, over 100 µM, over 100 µM and over 100 µM.
With `CC(C)(C)OC(=O)N[C@@H](Cc1ccccc1Br)C(=O)NCC#N`, the Ki in experiment [1] is 0.46 µM; in experiment [2], 1.1 µM; in experiment [3], 0.61 µM; in experiment [4], 4.2 µM.
With `C=CCNC(=O)[C@H](Cc1ccccc1)NC(=O)OC(C)(C)C`, the Ki is 497 µM in experiment [1], over 1000 µM in experiment [2], over 100 µM in experiment [3] and over 1000 µM in experiment [4].
`N#CCNC(=O)CNS(=O)(=O)c1ccc2ccccc2c1`: the Ki in experiment [1] was 10 µM; in experiment [2], 25 µM; in experiment [3], 2.5 µM; in experiment [4], over 100 µM.
The matching figures for `CC(C)(C)OC(=O)N[C@@H](Cc1ccc2ccccc2c1)C(=O)NCC#N`: 0.021 µM, 0.12 µM, 0.083 µM and 83 µM.
For `CC(=O)CNC(=O)[C@H](Cc1ccccc1)NC(=O)OC(C)(C)C`, in that order: 187 µM, 2.3 µM, 2.1 µM and 2.1 µM.
The matching figures for `C[C@H](NC(=O)OC(C)(C)C)C(=O)NCC#N`: 22 µM, over 100 µM, 292 µM and 136 µM.
For `CC[C@@H](C)[C@H](NC(=O)OC(C)(C)C)C(=O)NCC#N`, the Ki in experiment [1] amounted to 26 µM; in experiment [2], 4.9 µM; in experiment [3], 4.1 µM; in experiment [4], 5.8 µM.
For `C#CCNC(=O)[C@H](Cc1ccccc1)NC(=O)OC(C)(C)C`, in that order: 497 µM, over 1000 µM, over 100 µM and over 1000 µM.
The matching figures for `N#CCNC(=O)[C@H](Cc1ccccc1)NC(=O)c1ccccc1`: 0.062 µM, 0.23 µM, 0.077 µM and 1.5 µM.
`CC(C)(C)OC(=O)N[C@@H](Cc1ccccc1F)C(=O)NCC#N`: the Ki in experiment [1] is 0.4 µM; in experiment [2], 0.47 µM; in experiment [3] it was 0.77 µM; in experiment [4], 3.3 µM.
The matching figures for `CC(C)(C)OC(=O)N[C@@H](Cc1ccsc1)C(=O)NCC#N`: 0.57 µM, 4.5 µM, 0.76 µM and 2.1 µM.
For `CC(C)(C)OC(=O)N[C@@H](Cc1ccccc1-c1ccccc1)C(=O)NCC#N`, in that order: 299 µM, over 100 µM, over 100 µM and over 100 µM.
The matching figures for `N#CCNC(=O)CNC(=O)OCc1ccccc1`: 1600 µM, over 1000 µM, over 1000 µM and over 1000 µM.
Take `CC(C)(C)OC(=O)NCC(=O)NCC#N`: the Ki in experiment [1] is over 3000 µM; in experiment [2], over 1000 µM; in experiment [3], over 1000 µM; in experiment [4], over 1000 µM.
For the compound `CC(C)(C)OC(=O)N[C@@H](COCc1ccccc1)C(=O)NCC#N`, the Ki in experiment [1] was 11 µM; in experiment [2] it was 33 µM; in experiment [3] it was 2.2 µM; in experiment [4] it was over 100 µM.
For `CC(C)(C)OC(=O)N[C@@H](Cc1ccc(Br)cc1)C(=O)NCC#N`, in that order: 0.029 µM, 0.63 µM, 0.19 µM and 28 µM.
As for `CC(C)(C)OC(=O)N[C@@H](Cc1ccccc1)C(=O)NCC#N`, the Ki came to 0.26 µM in experiment [1], 0.62 µM in experiment [3] and 4.1 µM in experiment [4].
With `CC(C)(C)OC(=O)N[C@@H](Cc1cccc(F)c1)C(=O)NCC#N`, the Ki in experiment [1] came out at 0.5 µM; in experiment [2], 0.7 µM; in experiment [3] it was 0.86 µM; in experiment [4], 6.3 µM.
Take `CC(C)(C)OC(=O)N[C@@H](Cc1c(F)c(F)c(F)c(F)c1F)C(=O)NCC#N`: the inhibition constant Ki in experiment [1] is 14 µM; in experiment [2], 2.5 µM; in experiment [3], 15 µM; in experiment [4] it was over 100 µM.
Take `CC[C@H](NC(=O)OC(C)(C)C)C(=O)NCC#N`: the Ki in experiment [1] was 5.4 µM; in experiment [2], over 100 µM; in experiment [3], 28 µM; in experiment [4] it was 5 µM.
Turning to `CCC[C@H](NC(=O)OC(C)(C)C)C(=O)NCC#N`, the Ki in experiment [1] was found to be 0.75 µM; in experiment [2], 22 µM; in experiment [3], 0.9 µM; in experiment [4] it was 1.1 µM.
The matching figures for `CC(C)(C)OC(=O)N[C@H](C(=O)NCC#N)c1ccccc1`: 83 µM, 29 µM, 1.7 µM and 90 µM.
The matching figures for `CC(C)C[C@H](NC(=O)OC(C)(C)C)C(=O)NCC#N`: 2 µM, 1.2 µM, 0.13 µM and 0.12 µM.

One may read the Ki as the dissociation constant of the complex between target and ligand, obtained from inhibition or displacement. Read a low Ki as tighter binding.
